# Reference: patent US7759345B2, “Antitumoral derivatives of ET-743” (priority 2001, dated 2010)
# Where two headings read alike, the source gives them in different places.
# Assays:
# A-498 = experiment: Inhibition of cells growth by colorimetric assay (SRB), A-498; type: cell-based; settings: for LC50 / GI50: Homo sapiens; for LC50: A498, 48 h; for GI50: A498
# Experimental: (§1) 2°.—Inhibition of Cells Growth by Colorimetric Assay.
# (§2) A colorimetric type of assay, using sulforhodamine B (SRB) reaction has been adapted for a quantitative measurement of cell growth and viability [following the technique described by Philip Skehan, et al. (1990), New colorimetric cytotoxicity assay for anticancer drug screening, J. Natl. Cancer Inst., 82:1107-1112]
# (§3) This form of the assay employs 96 well cell culture microplates of 9 mm diameter (Faircloth, 1988; Mosmann, 1983). Most of the cell lines are obtained from American Type Culture Collection (ATCC) derived from different human cancer types.
# (§4) Cells are maintained in RPMI 1640 10% FBS, supplemented with 0.1 g/l penicillin and 0.1 g/l streptomycin sulfate and then incubated at 37° C., 5% CO2 and 98% humidity. For the experiments, cells were harvested from subconfluent cultures using trypsin and resuspended in fresh medium before plating.
# (§5) Cells are seeded in 96 well microtiter plates, at 5×10^3 cells per well in aliquots of 195 μl medium, and they are allowed to attach to the plate surface by growing in drug free medium for 18 hours. Afterward, samples are added in aliquots of 5 μl in a ranging from 10 to 10^−8 μg/ml, dissolved in DMSO/EtOH/PBS (0.5:0.5:99). After 48 hours exposure, the antitumor effect are measured by the SRB methodology: cells are fixed by adding 50 μl of cold 50% (wt/vol) trichloroacetic acid (TCA) and incubating for 60 minutes at 4° C. Plates are washed with deionized water and dried. One hundred μl of SRB solution (0.4% wt/vol in 1% acetic acid) is added to each microtiter well and incubated for 10 minutes at room temperature. Unbound SRB is removed by washing with 1% acetic acid. Plates are air dried and bound stain is solubilized with Tris buffer. Optical densities are read on a automated spectrophotometric plate reader at a single wavelength of 490 nm.
# (§6) The values for mean+/−SD of data from triplicate wells are calculated. Some parameters for cellular responses can be calculated: GI=growth inhibition, TGI=total growth inhibition (cytostatic effect) and LC=cell killing (cytotoxic effect).
# (§7) Obtained results may predict the usefulness of a certain drug as a potential cancer treatment. For this technique, compounds which show GI50 values smaller than 10 μg/ml are selected to continue with further studies. GI50's data allow to predict that not only could a drug be cystostatic, but also it could have a potential in terms of tumor reduction.
# SW620 = experiment: Inhibition of cells growth by colorimetric assay (SRB), SW620; type: cell-based; settings: for LC50 / GI50: Homo sapiens; for LC50: SW-620, 48 h
# Experimental: as §1, §2, §3, §4, §5, §6, §7
# HT-29 = experiment: Inhibition of cells growth by colorimetric assay (SRB), HT-29; type: cell-based; settings: for GI50 / LC50 (concentration for 50% cell killing): Homo sapiens, HT-29, 48 h
# Procedure, shortened: (§8)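 SRB read-out at 490 nm after 48 h drug exposure (10 to 10^−8 μg/ml) of cells plated at 5×10^3/well and attached 18 h in drug-free RPMI 1640/10% FBS. Triplicate means give GI, TGI (cytostatic) and LC (cytotoxic).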
# DU-145 = experiment: Inhibition of cells growth by colorimetric assay (SRB), DU-145; type: cell-based; settings: for GI50 / CC50: Homo sapiens, DU-145, 48 h
# Procedure, shortened: as §8
# SK-MEL-28 = experiment: Inhibition of cells growth by colorimetric assay (SRB), SK-MEL-28; type: cell-based; settings: for GI50 / CC50: Homo sapiens, SK-MEL-28, 48 h
# Procedure, shortened: as §8
# A-549 = experiment: Inhibition of cells growth by colorimetric assay (SRB), A-549; type: cell-based; settings: for GI50 / LC50 (concentration for 50% cell killing): Homo sapiens, A549, 48 h
# Procedure, shortened: as §8
# MCF-7 = experiment: Inhibition of cells growth by colorimetric assay (SRB), MCF-7; type: cell-based; settings: for CC50 / GI50: Homo sapiens; for CC50: MCF7, 48 h; for GI50: MCF7
# Experimental: as §1, §2, §3, §4, §5, §6, §7
# MDA-MB-231 = experiment: Inhibition of cells growth by colorimetric assay (SRB), MDA-MB-231; type: cell-based; settings: for CC50 / GI50: Homo sapiens; for CC50: MDA-MB-231, 48 h; for GI50: MDA-MB-231
# Experimental: as §1, §2, §3, §4, §5, §6, §7
# OVCAR-3 = experiment: Inhibition of cells growth by colorimetric assay (SRB), OVCAR-3; type: cell-based
# Experimental: as §1, §2, §3, §4, §5
# The values for mean+/−SD of data from triplicate wells are calculated. Some parameters for cellular responses can be calculated: GI=growth inhibition, TGI=total growth inhibition (cytostatic effect) and LC=cell killing (cytotoxic effect). […]
# Source text for Heart: (§9) Toxicity was asssessed by the methods reported in Toxicology in Vitro, 15 (2001) 571-577, J. Luber Narod et al.: “Evaluation of the use of in vitro methodolodies as tools for screening new compounds for potential in vivo toxicity”.
# Source text for Kidney: as §9
# Source text for Liver: as §9
# Source text for Myelo: as §9
# Source text for Skeletal: as §9
smiles,measurement,setting,value
COc1cc2c(cc1OC(=O)CCc1ccccc1)CCN[C@]21CS[C@@H]2c3c(OC(C)=O)c(C)c4c(c3[C@H](COC1=O)N1C2[C@H]2c3c(cc(C)c(OC)c3O)C[C@@H]([C@@H]1O)N2C)OCO4 (stereo partly shown) [Compound 72],Toxicity Data Kidney,Kidney,1.85E-08
same,TGI A-498,"A-498; A-498, SRB, 48 hours exposure",4.47E-09
same,LC50,A-498; read-out: LC50 A-498,11.2 nM
same,GI50,"A-498; A-498, SRB, 48 hours exposure, read-out: GI50 A-498",2.24 nM
same,Toxicity Data Skeletal,Skeletal,1.32E-08
same,Toxicity Data Liver,Liver,1.55E-08
same,LC50,SW620; read-out: LC50 SW-620,11.2 nM
same,GI50,"SW620; SW-620, SRB, 48 hours exposure, read-out: GI50 SW-620",2.24 nM
same,TGI SW-620,"SW620; SW-620, SRB, 48 hours exposure",3.36E-09
same,Toxicity Data Myelo,Myelo,2.15E-08
same,Toxicity Data Heart,Heart,3.78E-08
same,TGI HT-29,"HT-29; HT-29, SRB, 48 hours exposure",7.83E-09
same,GI50,"HT-29; HT-29, SRB, 48 hours exposure, read-out: GI50 HT-29",2.24 nM
same,LC50 (concentration for 50% cell killing),"HT-29; read-out: LC50 HT-29, HT-29, SRB, 48 hours exposure",11.2 nM
same,TGI DU-145,"DU-145; DU-145, SRB, 48 hours exposure",3.36E-09
same,GI50,"DU-145; DU-145, SRB, 48 hours exposure, read-out: GI50 DU-145",2.24 nM
same,CC50,"DU-145; read-out: LC50 DU-145, DU-145, SRB, 48 hours exposure",8.95 nM
same,GI50,"SK-MEL-28; MEL-28, SRB, 48 hours exposure, read-out: GI50 MEL-28",2.24 nM
same,CC50,"SK-MEL-28; read-out: LC50 MEL-28, MEL-28, SRB, 48 hours exposure",7.83 nM
same,TGI MEL-28,"SK-MEL-28; MEL-28, SRB, 48 hours exposure",3.36E-09
same,TGI A-549,"A-549; A-549, SRB, 48 hours exposure",3.36E-09
same,GI50,"A-549; A-549, SRB, 48 hours exposure, read-out: GI50 A-549",1.12 nM
same,LC50 (concentration for 50% cell killing),"A-549; read-out: LC50 A-549, A-549, SRB, 48 hours exposure",7.83 nM
same,CC50,MCF-7; read-out: LC50 MCF,11.2 nM
same,GI50,"MCF-7; MCF, SRB, 48 hours exposure, read-out: GI50 MCF",2.24 nM
same,TGI MCF,"MCF-7; MCF, SRB, 48 hours exposure",4.47E-09
same,CC50,MDA-MB-231; read-out: LC50 MB-231,11.2 nM
same,GI50,"MDA-MB-231; MB-231, SRB, 48 hours exposure, read-out: GI50 MB-231",2.24 nM
same,TGI MB-231,"MDA-MB-231; MB-231, SRB, 48 hours exposure",3.36E-09
COc1cc2c(cc1OC(=O)/C=C/c1ccccc1)CCN[C@]21CS[C@@H]2c3c(OC(C)=O)c(C)c4c(c3[C@H](COC1=O)N1C2[C@@H]2N[C@@H](Cc3cc(C)c(OC)c(O)c32)[C@@H]1O)OCO4 (stereo partly shown) [Compound 212],Toxicity Data Kidney,Kidney,3.34E-09
same,LC50,A-498; read-out: A-498 LC50,1140 nM
same,GI50,"A-498; SRB assay, 48 hours exposure, read-out: A-498 GI50",2.28 nM
same,A-498 TGI,"A-498; SRB assay, 48 hours exposure",1.14E-08
same,Toxicity Data Skeletal,Skeletal,2.21E-08
same,Toxicity Data Liver,Liver,8.68E-08
same,LC50,SW620; read-out: SW-620 LC50,2280 nM
same,GI50,"SW620; SW-620, SRB assay, 48 hours exposure, read-out: SW-620 GI50",0.0228 nM
same,SW-620 TGI,"SW620; SRB assay, 48 hours exposure",1.14E-08
same,CC50,"OVCAR-3; Homo sapiens, OVCAR-3, 48 h, read-out: OVCAR LC50",2280 nM
same,GI50,"OVCAR-3; Homo sapiens, OVCAR-3, SRB assay, 48 hours exposure",0.342 nM
same,OVCAR TGI,"OVCAR-3; SRB assay, 48 hours exposure",3.42E-09
same,Toxicity Data Myelo,Myelo,8.58E-09
same,Toxicity Data Heart,Heart,3.20E-08
same,GI50,"HT-29; SRB assay, 48 hours exposure, read-out: HT-29 GI50",2.28 nM
same,LC50 (concentration for 50% cell killing),"HT-29; read-out: HT-29 LC50, SRB assay, 48 hours exposure",11.4 nM
same,HT-29 TGI,"HT-29; SRB assay, 48 hours exposure",4.56E-09
same,GI50,"DU-145; SRB assay, 48 hours exposure, read-out: DU-145 GI50",0.114 nM
same,CC50,"DU-145; read-out: DU-145 LC50, SRB assay, 48 hours exposure",11.4 nM
same,DU-145 TGI,"DU-145; SRB assay, 48 hours exposure",6.83E-10
same,GI50,"SK-MEL-28; SRB assay, 48 hours exposure, read-out: MEL-28 GI50",1.14 nM
same,CC50,"SK-MEL-28; read-out: MEL-28 LC50, SRB assay, 48 hours exposure",9.11 nM
same,MEL-28 TGI,"SK-MEL-28; SRB assay, 48 hours exposure",3.42E-09
same,GI50,A-549; read-out: A-549 GI50,9.11 nM
same,LC50 (concentration for 50% cell killing),"A-549; read-out: A-549 LC50, SRB assay, 48 hours exposure",114 nM
same,A-549 TGI,"A-549; SRB assay, 48 hours exposure",2.28E-08
same,CC50,MCF-7; read-out: MCF LC50,342 nM
same,GI50,"MCF-7; SRB assay, 48 hours exposure, read-out: MCF GI50",0.342 nM
same,MCF TGI,"MCF-7; SRB assay, 48 hours exposure",1.14E-08
same,CC50,MDA-MB-231; read-out: MB-231 LC50,114 nM
same,GI50,"MDA-MB-231; SRB assay, 48 hours exposure, read-out: MB-231 GI50",0.228 nM
same,MB-231 TGI,"MDA-MB-231; SRB assay, 48 hours exposure",5.69E-09
